Data reported in PubChem BioAssay (NCI).
Where “and” joins values, the source holds several entries; their conditions need not be identical. Equal values may be shown once.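 Exposure lasted 48 hours, with cells grown in 96-well plates and compounds tested at five concentrations. Here, GI50 denotes the concentration required for 50% inhibition of growth. TGI marks complete inhibition of growth.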 Where a SMILES comes first, the peptide text is derived from it. The star is where a group is joined. Trt = c1ccc(C(c2ccccc2)(c2ccccc2)*)cc1; Cbz = O=C(OCc1ccccc1)*

tested on: MDA-MB-468 breast; assay: NCI anticancer screen, dose series, 48 h

Going from C=C(C)[C@@H]1CC[C@]2(C(=O)NC(C)=O)CC[C@]3(C)[C@H](CC[C@@H]4[C@@]5(C)CCCNC(C)(C)[C@@H]5CC[C@]43C)[C@@H]12 to Nc1c(C(=O)Nc2cccc3ccccc23)sc2nc3c(cc12)C(=O)CCC3, the GI50 falls from 1.6 µM to 0.195 µM (8.2-fold).

Going from COc1ccc(-c2n/c(=C\c3c(O)[nH]c4ccccc34)cc3c2=Nc2ccccc2-3)cc1 to O=C(Nc1cccc(C(F)(F)F)c1)c1cc2ccccc2cc1O, the GI50 rises from 0.368 µM to 2.2 µM (6-fold).

Cc1cc2nc3c4ccc(Br)cc4n(CCN(C)C)c3nc2cc1C and Oc1ccc(Cl)cc1/C=N\NC(=S)N/N=C/c1cc(Cl)ccc1O are within 1.5-fold of each other in GI50: 1.21 µM for the first, 1.76 µM for the second.

Going from CCCCCCCCCCSC(=N)N to NC(=O)c1ccc(N(C(N)=O)c2c(F)cccc2F)nc1-c1ccc(F)cc1F, the GI50 rises from 1.66 µM to over 100 µM.

Compared with COc1ccc(C(=O)c2cc3c(N)c(C(=O)Nc4cccc(OC)c4)sc3nc2C)cc1, CN=C(N)N/N=C(\C)c1ccc2c(c1)Cc1ccccc1-2 is 4.5-fold higher in GI50: 0.396 µM for the first, 1.79 µM for the second.

COc1cccc2c1cc1c3c(cc4c(c32)OCO4)C(=O)N1 and Nc1nc(N)c2c(n1)NC(c1sc(Cl)nc1Cl)CC(c1ccc3c(c1)OCO3)=N2 (stereo unspecified) are within 1.5-fold of each other in GI50: 2.04 µM for the first, 1.65 µM for the second.

First: Cn1cc(C2=C(c3cn(CCCCC(=N)N)c4ccccc34)C(=O)NC2=O)c2ccccc21
Second: CCOC(=O)c1c(NCC(=O)Nc2ccc(Br)cc2)sc2c1CCCC2
The GI50 of the first is 5-fold higher: 9.81 µM for the first, 1.95 µM for the second.

Going from CCN(CC)Cc1cc(Nc2c3ccccc3nc3cc(Cl)ccc23)ccc1O to O=C(/C=C/c1cccc2ccccc12)Nc1ncc(Cc2ccccc2)s1, the GI50 falls from 1.5 µM to 0.665 µM (2.3-fold).

First: Cc1c(Cl)cccc1NC(=O)c1sc2nc3c(cc2c1N)CCCC3
Second: COC(=O)C(CSC(c1ccccc1)(c1ccccc1)c1ccccc1)NC(=O)C(CC(N)=O)NC(=O)OCc1ccccc1 (stereo not drawn) (Cbz-Asn-Cys(Trt)-OMe; configuration not given here)
The GI50 of the first is 7.9-fold lower: 0.394 µM for the first, 3.13 µM for the second.

Compared with CCCN1CCC=C(c2ccc(Nc3nc(Nc4ccccc4C(N)=O)c4cc[nH]c4n3)c(C)c2)C1, COc1cc(/C=N/NC(=O)c2ccccc2Nc2cccc(C(F)(F)F)c2)cc(OC)c1OC is lower in GI50: over 14.6 µM for the first, 1.75 µM for the second.

Going from Cc1c(Cl)c(C)c(Cc2c(C)c(Cl)c(C)c(Cl)c2O)c(O)c1Cl to O=C(Nc1nc2ccccc2s1)c1cc(-c2ccc(F)cc2)n2nc(-c3ccccc3)cc2n1, the GI50 rises from 1.82 µM to 5.18 µM (2.8-fold).

First: C=C(C)[C@@H]1CC[C@]2(CO)CC[C@]3(C)[C@H](CC[C@@H]4[C@@]5(C)CC[C@H](NCO)C(C)(C)[C@@H]5CC[C@]43C)[C@@H]12
Second: COc1cc(OC)c(/C=C/S(=O)(=O)Cc2ccc(OC)c(NCC(=O)NO)c2)c(OC)c1
The GI50 of the first is 29-fold higher: 0.854 µM for the first, 0.0293 µM for the second.

Going from Cc1cc(Nc2nc(-c3ccncc3)nc3ccccc23)n[nH]1 to C=CC(C)(O)CC/C=C(\CO)C(=O)OC1C(C)OC(O[C@](C)(C=C)CC/C=C(\CO)C(=O)O[C@H]2C[C@@]3(C(=O)OC4OC(CO)C(O)C(O)C4OC4OC(C)C(OC5OC(CO)C(O)C5O)C(OC5OC(CO)C(O)C(O)C5O)C4O)C(CC2(C)C)C2=CCC4[C@@]5(C)CC[C@H](OC6OC(COC7OC(C)C(O)C(O)C7OC7OCC(O)C(O)C7O)C(O)C(O)C6NC(C)=O)C(C)(C)C5CC[C@@]4(C)[C@]2(C)C[C@H]3O)C(O)C1O (stereo partly specified), the GI50 falls from 6.81 µM to 0.189 µM (36-fold).

Going from Cc1ccc(-c2n[nH]c(=O)c3noc(-c4ccc(C)cc4)c23)cc1 to O=C1/C(=C\c2ccccc2)C2OCC=C3CN4CCC56c7ccccc7N1C5C2C3CC46 (stereo unspecified), the GI50 rises from 0.37 µM to 3.31 µM (8.9-fold).

Going from C/C(=N\NC(=O)CSc1nc2sc3c(c2c(=O)n1-c1ccccc1)CCC(C)C3)c1ccc(Cl)cc1 (stereo unspecified) to H-QIYKKYRTWYRKAWKVLGKV-NH2, the GI50 rises from 1.55 µM to 10.9 µM (7-fold).

First: O=C(CCCCCCCCC(=O)N/N=C\c1cc(Cl)ccc1O)N/N=C\c1cc(Cl)ccc1O
Second: COc1ccc(C2=Nc3c/c(=C\c4c(O)[nH]c5cc(Cl)ccc45)ccc3=N2)cc1
The GI50 of the first is 2.1-fold lower: 1.44 µM for the first, 3.06 µM for the second.

Going from COc1cc(Cn2c(-c3ccccc3)cc3c2-c2oncc2CC3)cc(OC)c1 to O=C(C=C=Nc1ccccc1)C(=O)N=C=Cc1ccccc1, the GI50 rises from 0.211 µM to 2.1 µM (10-fold).

Compared with C=C(C)[C@@H]1CC[C@]2(C(=O)NC(C)=O)CC[C@]3(C)[C@H](CC[C@@H]4[C@@]5(C)CCCNC(C)(C)[C@@H]5CC[C@]43C)[C@@H]12, Nc1c(C(=O)Nc2cccc3ccccc23)sc2nc3c(cc12)C(=O)CCC3 is higher in TGI: 3.1 µM for the first, over 45 µM for the second.

Compared with COc1ccc(-c2n/c(=C\c3c(O)[nH]c4ccccc34)cc3c2=Nc2ccccc2-3)cc1, O=C(Nc1cccc(C(F)(F)F)c1)c1cc2ccccc2cc1O is higher in TGI: 1.43 µM for the first, over 51.6 µM for the second.

Compared with Cc1cc2nc3c4ccc(Br)cc4n(CCN(C)C)c3nc2cc1C, Oc1ccc(Cl)cc1/C=N\NC(=S)N/N=C/c1cc(Cl)ccc1O is 2.5-fold higher in TGI: 2.91 µM for the first, 7.35 µM for the second.

Going from CCCCCCCCCCSC(=N)N to NC(=O)c1ccc(N(C(N)=O)c2c(F)cccc2F)nc1-c1ccc(F)cc1F, the TGI rises from 3.2 µM to over 100 µM.

CN=C(N)N/N=C(\C)c1ccc2c(c1)Cc1ccccc1-2 and COc1cccc2c1cc1c3c(cc4c(c32)OCO4)C(=O)N1 are within 1.5-fold of each other in TGI: 4.4 µM for the first, 6.22 µM for the second.

First: Nc1nc(N)c2c(n1)NC(c1sc(Cl)nc1Cl)CC(c1ccc3c(c1)OCO3)=N2 (stereo unspecified)
Second: Cn1cc(C2=C(c3cn(CCCCC(=N)N)c4ccccc34)C(=O)NC2=O)c2ccccc21
The TGI of the first is lower: 13.3 µM for the first, over 25 µM for the second.

CCOC(=O)c1c(NCC(=O)Nc2ccc(Br)cc2)sc2c1CCCC2 and CCN(CC)Cc1cc(Nc2c3ccccc3nc3cc(Cl)ccc23)ccc1O are within 1.5-fold of each other in TGI: 4.53 µM for the first, 3.06 µM for the second.

O=C(/C=C/c1cccc2ccccc12)Nc1ncc(Cc2ccccc2)s1 and Cc1c(Cl)cccc1NC(=O)c1sc2nc3c(cc2c1N)CCCC3 cannot be ordered by TGI: over 24.9 µM for the first, over 100 µM for the second.

Compared with COC(=O)C(CSC(c1ccccc1)(c1ccccc1)c1ccccc1)NC(=O)C(CC(N)=O)NC(=O)OCc1ccccc1 (stereo not drawn) (Cbz-Asn-Cys(Trt)-OMe; configuration not given here), CCCN1CCC=C(c2ccc(Nc3nc(Nc4ccccc4C(N)=O)c4cc[nH]c4n3)c(C)c2)C1 is higher in TGI: 14.6 µM for the first, over 25 µM for the second.

COc1cc(/C=N/NC(=O)c2ccccc2Nc2cccc(C(F)(F)F)c2)cc(OC)c1OC and Cc1c(Cl)c(C)c(Cc2c(C)c(Cl)c(C)c(Cl)c2O)c(O)c1Cl are within 1.5-fold of each other in TGI: 11.8 µM for the first, 8.4 µM for the second.

Going from O=C(Nc1nc2ccccc2s1)c1cc(-c2ccc(F)cc2)n2nc(-c3ccccc3)cc2n1 to C=C(C)[C@@H]1CC[C@]2(CO)CC[C@]3(C)[C@H](CC[C@@H]4[C@@]5(C)CC[C@H](NCO)C(C)(C)[C@@H]5CC[C@]43C)[C@@H]12, the TGI falls from 36 µM to 1.71 µM (21-fold).

COc1cc(OC)c(/C=C/S(=O)(=O)Cc2ccc(OC)c(NCC(=O)NO)c2)c(OC)c1 and Cc1cc(Nc2nc(-c3ccncc3)nc3ccccc23)n[nH]1 cannot be ordered by TGI: over 100 µM for the first, over 100 µM for the second.

Compared with C=CC(C)(O)CC/C=C(\CO)C(=O)OC1C(C)OC(O[C@](C)(C=C)CC/C=C(\CO)C(=O)O[C@H]2C[C@@]3(C(=O)OC4OC(CO)C(O)C(O)C4OC4OC(C)C(OC5OC(CO)C(O)C5O)C(OC5OC(CO)C(O)C(O)C5O)C4O)C(CC2(C)C)C2=CCC4[C@@]5(C)CC[C@H](OC6OC(COC7OC(C)C(O)C(O)C7OC7OCC(O)C(O)C7O)C(O)C(O)C6NC(C)=O)C(C)(C)C5CC[C@@]4(C)[C@]2(C)C[C@H]3O)C(O)C1O (stereo partly specified), Cc1ccc(-c2n[nH]c(=O)c3noc(-c4ccc(C)cc4)c23)cc1 is 5.8-fold higher in TGI: 0.848 µM for the first, 4.88 µM for the second.

Going from O=C1/C(=C\c2ccccc2)C2OCC=C3CN4CCC56c7ccccc7N1C5C2C3CC46 (stereo unspecified) to C/C(=N\NC(=O)CSc1nc2sc3c(c2c(=O)n1-c1ccccc1)CCC(C)C3)c1ccc(Cl)cc1 (stereo unspecified), the TGI falls from 26.1 µM to 5.92 µM (4.4-fold).

First: H-QIYKKYRTWYRKAWKVLGKV-NH2
Second: O=C(CCCCCCCCC(=O)N/N=C\c1cc(Cl)ccc1O)N/N=C\c1cc(Cl)ccc1O
The TGI of the first is 5.7-fold higher: 41.9 µM for the first, 7.36 µM for the second.

Going from COc1ccc(C2=Nc3c/c(=C\c4c(O)[nH]c5cc(Cl)ccc45)ccc3=N2)cc1 to COc1cc(Cn2c(-c3ccccc3)cc3c2-c2oncc2CC3)cc(OC)c1, the TGI falls from 10.4 µM to 0.745 µM (14-fold).

For O=C(C=C=Nc1ccccc1)C(=O)N=C=Cc1ccccc1, the TGI was 4.93 µM.

Cn1cc(-c2nc(N[C@@H]3CCCC[C@@H]3N)c(F)c3c2C(=O)NC3)cn1 was tested, and the GI50 was 13 µM and 16.9 µM.
For O=C(NOCCO)c1cc(CN2OCCCC2=O)c(F)c(F)c1Nc1ccc(I)cc1F, the GI50 was 14.2 µM and > 10 µM.

In the case of Cn1cc(-c2nc(N[C@@H]3CCCC[C@@H]3N)c(F)c3c2C(=O)NC3)cn1, the TGI is reported as 44.9 µM and 69.9 µM.
For O=C(NOCCO)c1cc(CN2OCCCC2=O)c(F)c(F)c1Nc1ccc(I)cc1F, the TGI was 66.7 µM and > 10 µM.
